Reference: paper PMC5641083, “Blockage of FOXP3 transcription factor dimerization and FOXP3/AML1 interaction inhibits T regulatory cell activity: sequence optimization of a peptide inhibitor” (Oncotarget, 2017)

Legend:
[1] = system: FOXP3-6His (native FOXP3, 1-421); assay: Surface plasmon resonance, peptide binding to FOXP3-coated chip; conditions: FOXP3 coated on chip; mutants compared with original P60
Method: Using truncated versions of FOXP3, we attempted to identify the FOXP3 domain interacting with peptide P60, described previously by or group as a FOXP3 inhibitory peptide. Thus, besides native FOXP3 we prepared the deletion mutants FOXP3 (1-331) (lacking the C-terminus of FOXP3), FOXP3 (177-421) (lacking the N-terminus) and FOXP3 (1-177) (encompassing only the N-terminus of FOXP3) (Figure 1A). They were coated on a chip for SPR experiments.
Screening of peptide binding to FOXP3 was performed by surface plasmon resonance (SPR) using ProteOn XPR36 (Bio-Rad, Hercules CA, USA) optical biosensor. Recombinant protein FOXP3-6His and the indicated truncated versions of FOXP3 were produced and purified from E-coli and immobilized covalently onto a GLM sensor chip (Bio-Rad) using sulfo-NHS and EDC (Bio-Rad) coupling reagents. After protein immobilization, chip surface was treated with ethanolamine to deactivate the excess of reactive esters. Individual peptide solutions (1–20 μM) were injected by triplicate in running buffer (Phosphate buffered saline, 0.005% (v/v) Tween 20, pH 7.4) at a flow of 30 μl/min. The interspot signal (obtained in the chip surface not immobilized with protein) was used as reference.

CT26 tumor cells = assay: AH1 vaccination and CT26 tumor challenge; format: in vivo, BALB/c mice; conditions: AH1 in IFA, peptide 10 nanomol/mice/day i.p. 10 days, challenge 10^6 CT26 cells s.c. day 10
Method: In those experiments, BALB/c mice were immunized with peptide AH1 emulsified in IFA and treated daily with saline or with 50 nanomol/mice/day of peptide P60 i.p. from day 0 to day 9 after immunization. To study the efficacy of CM-1315, our optimized version of P60, mice immunized with AH1 were treated with 10 nanomol/mice/day of P60 or CM-1315 and challenged at day 10 by s.c. injection with 10^6 CT26 tumor cells (instead of 5 × 10^5 cells used in our previous study). As control, groups of mice were injected with AH1 alone or left untreated.
For tumor rejection experiments, Hepa-129 cells (10^6 cells/mouse), were injected subcutaneously (sc) in C3H/HeN mice (n = 6). Ten days later, when the tumor reached 5 mm in diameter, mice were randomly divided into different experimental groups. A group of mice were treated i.p. with anti-PD1 antibodies (50 μg/mouse). Antibody administration was repeated one week after this first administration. A group of mice treated with anti-PD1 also received the cyclic peptide CM-1215 from days 10 to 20 (50 μg/mice/day). Tumor size, presented as the average of two perpendicular diameters (millimetres), was measured at regular intervals. Mice were sacrificed when the mean tumor diameter was greater than 20 mm. […] Tumor size was monitored twice a week with a calliper and it was expressed according to the formula V = (length × width^2)/2. […]

FOXP3/AML1 interaction = biological target: T1, FOXP3/AML1 interaction (Homo sapiens, UniProt Q9BZS1); assay: AlphaScreen FOXP3/AML1 heterodimerization assay; format: biochemical
T1 sequence (Q9BZS1 1-431): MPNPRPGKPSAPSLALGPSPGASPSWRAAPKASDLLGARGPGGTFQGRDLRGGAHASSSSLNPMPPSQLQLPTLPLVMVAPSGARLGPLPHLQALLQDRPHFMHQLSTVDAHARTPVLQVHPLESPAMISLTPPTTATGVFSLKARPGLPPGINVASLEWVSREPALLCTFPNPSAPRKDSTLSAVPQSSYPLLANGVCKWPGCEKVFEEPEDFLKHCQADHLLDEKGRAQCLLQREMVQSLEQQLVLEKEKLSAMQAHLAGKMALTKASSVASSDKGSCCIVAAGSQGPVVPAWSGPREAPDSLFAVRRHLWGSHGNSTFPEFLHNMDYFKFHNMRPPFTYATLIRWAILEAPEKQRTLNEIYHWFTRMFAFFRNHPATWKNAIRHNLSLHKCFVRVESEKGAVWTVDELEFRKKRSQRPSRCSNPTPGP
From the text: (§1) AML1 is required for IL-2 and IFN-γ gene expression in conventional CD4+ T cells and its interaction with FOXP3 is needed for the immunosuppressive activity of Tregs. On the other hand, it has been described that the leucine zipper region is necessary and sufficient to mediate FOXP3 homo-dimerization, which is required for its function as a transcriptional regulator [13, 15, 20]. Thus, since P60 binds to this FOXP3 intermediate region, we analyzed if it could act as a decoy molecule to inhibit FOXP3 homodimerization or the FOXP3-AML1 heterodimerization. The capacity of FOXP3 to homodimerize was measured using the […] assay platform AlphaScreen™ (Perkin Elmer). Previous protein-cross titration experiment using different concentrations of FOXP3-6His (from 1000 to 0 nM) and GST-FOXP3 (from 300 to 0 nM) allowed us to define the optimal protein concentrations to analyze FOXP3 homodimerization (Figure 2A). […] We also tested if GST tagged FOXP3 was able to interact with AML1 protein tagged with 6 His at the N-terminus. As shown in the cross titration experiments in Figure 2C, a specific FOXP3-AML1 heterodimerization was visualized as an increase in the AlphaScreen signal.
(§2) FOXP3/AML1 heterodimerization, as well as FOXP3/FOXP3 homodimerization were analyzed by Alphascreen technology according to the manufacturer's instructions (Perkin Elmer, Benelux) as previously described.

[2] = biological target: T2, FOXP3/FOXP3 homodimerization (GST-FOXP3 and FOXP3-His) (Homo sapiens, UniProt Q9BZS1); assay: AlphaScreen FOXP3 homodimerization assay; format: biochemical; conditions: GST-FOXP3 40 nM, FOXP3-His 300 nM
T2 construct: made in house; host or cells: E. coli
T2 sequence (Q9BZS1 1-421): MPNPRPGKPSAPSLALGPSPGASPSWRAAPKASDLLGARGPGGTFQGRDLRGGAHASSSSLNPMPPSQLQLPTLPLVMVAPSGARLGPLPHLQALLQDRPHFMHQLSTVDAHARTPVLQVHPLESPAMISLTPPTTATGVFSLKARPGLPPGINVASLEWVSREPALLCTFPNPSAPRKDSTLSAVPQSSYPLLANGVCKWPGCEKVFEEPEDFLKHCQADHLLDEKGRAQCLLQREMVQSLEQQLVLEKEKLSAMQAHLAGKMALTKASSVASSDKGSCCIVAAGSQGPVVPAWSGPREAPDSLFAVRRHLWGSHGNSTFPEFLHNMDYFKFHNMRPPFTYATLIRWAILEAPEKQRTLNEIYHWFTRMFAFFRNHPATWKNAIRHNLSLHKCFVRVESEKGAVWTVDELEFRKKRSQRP
From the text: as §1, §2

FOXP3 binding capacity by SPR (in words) [1]: bound with high affinity
Substance: H-RDFQSFRKMWPFFAM-OH [P60]
Protection against CT26 tumor challenge (in words) (CT26 tumor cells): only animals treated with CM-1315 remained protected
Inhibition of FOXP3-AML1 heterodimerization (in words) (FOXP3/AML1 interaction): able to reduce the signal in a dose dependent manner
Inhibition of FOXP3 homodimerization (in words) [2]: able to impair FOXP3 dimerization in a dose dependent manner
